Source: ChEMBL document CHEMBL4020846 (J Med Chem, 2018)
Calls of active or inactive are those of the source. The calls are words filed in the database; no cut-off is given here.

How the values were obtained:
[1] = biological target: T1, Nucleotide-binding oligomerization domain-containing protein 1 (Homo sapiens) (UniProt Q9Y239); assay: Agonist activity at human NOD1 expressed in HEK-Blue cells assessed as induction of NF-kB transcriptional activity at 20 uM after 18 hrs by SEAP reporter gene assay; assay type: cell-based
T1 sequence (whole entry): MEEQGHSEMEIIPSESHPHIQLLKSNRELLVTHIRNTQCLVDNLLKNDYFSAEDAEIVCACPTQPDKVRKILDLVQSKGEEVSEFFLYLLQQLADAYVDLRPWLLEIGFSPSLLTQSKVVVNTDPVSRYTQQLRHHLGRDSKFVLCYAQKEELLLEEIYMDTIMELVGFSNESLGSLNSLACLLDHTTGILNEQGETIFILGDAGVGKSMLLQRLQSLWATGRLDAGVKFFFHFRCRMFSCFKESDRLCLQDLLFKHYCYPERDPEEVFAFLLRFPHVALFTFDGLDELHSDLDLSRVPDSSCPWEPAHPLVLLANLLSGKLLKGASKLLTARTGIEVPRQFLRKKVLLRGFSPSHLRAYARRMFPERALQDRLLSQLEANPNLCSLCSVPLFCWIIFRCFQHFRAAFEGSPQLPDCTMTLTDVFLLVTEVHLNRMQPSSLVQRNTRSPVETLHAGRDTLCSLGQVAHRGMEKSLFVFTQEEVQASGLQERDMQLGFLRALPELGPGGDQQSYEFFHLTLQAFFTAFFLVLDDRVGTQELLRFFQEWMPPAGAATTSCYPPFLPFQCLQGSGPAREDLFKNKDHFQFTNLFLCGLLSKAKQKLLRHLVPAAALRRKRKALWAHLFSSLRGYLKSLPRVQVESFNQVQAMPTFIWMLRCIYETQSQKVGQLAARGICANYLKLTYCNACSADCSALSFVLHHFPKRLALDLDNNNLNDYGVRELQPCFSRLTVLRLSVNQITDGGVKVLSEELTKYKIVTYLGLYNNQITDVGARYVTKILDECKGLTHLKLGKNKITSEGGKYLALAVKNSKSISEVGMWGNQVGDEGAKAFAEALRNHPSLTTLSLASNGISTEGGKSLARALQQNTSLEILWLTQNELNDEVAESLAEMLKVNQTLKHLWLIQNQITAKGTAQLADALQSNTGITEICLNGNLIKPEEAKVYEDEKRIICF

[2] = Cytotoxicity against HEK-Blue cells over-expressing NOD2 assessed as residual metabolic activity at 20 uM after 18 hrs by CellTiter 96 aqueous one solution cell proliferation assay relative to control; assay type: ADME, cell-based; conditions: human, read-out: Activity
[3] = biological target: T2, Nucleotide-binding oligomerization domain-containing protein 2 (Homo sapiens, UniProt Q9HC29); assay: Agonist activity at human NOD2 expressed in HEK-Blue cells assessed as induction of NF-kB transcriptional activity at 20 uM after 18 hrs by SEAP reporter gene assay; assay type: cell-based
T2 sequence (Q9HC29 whole entry, the tested form may be a part): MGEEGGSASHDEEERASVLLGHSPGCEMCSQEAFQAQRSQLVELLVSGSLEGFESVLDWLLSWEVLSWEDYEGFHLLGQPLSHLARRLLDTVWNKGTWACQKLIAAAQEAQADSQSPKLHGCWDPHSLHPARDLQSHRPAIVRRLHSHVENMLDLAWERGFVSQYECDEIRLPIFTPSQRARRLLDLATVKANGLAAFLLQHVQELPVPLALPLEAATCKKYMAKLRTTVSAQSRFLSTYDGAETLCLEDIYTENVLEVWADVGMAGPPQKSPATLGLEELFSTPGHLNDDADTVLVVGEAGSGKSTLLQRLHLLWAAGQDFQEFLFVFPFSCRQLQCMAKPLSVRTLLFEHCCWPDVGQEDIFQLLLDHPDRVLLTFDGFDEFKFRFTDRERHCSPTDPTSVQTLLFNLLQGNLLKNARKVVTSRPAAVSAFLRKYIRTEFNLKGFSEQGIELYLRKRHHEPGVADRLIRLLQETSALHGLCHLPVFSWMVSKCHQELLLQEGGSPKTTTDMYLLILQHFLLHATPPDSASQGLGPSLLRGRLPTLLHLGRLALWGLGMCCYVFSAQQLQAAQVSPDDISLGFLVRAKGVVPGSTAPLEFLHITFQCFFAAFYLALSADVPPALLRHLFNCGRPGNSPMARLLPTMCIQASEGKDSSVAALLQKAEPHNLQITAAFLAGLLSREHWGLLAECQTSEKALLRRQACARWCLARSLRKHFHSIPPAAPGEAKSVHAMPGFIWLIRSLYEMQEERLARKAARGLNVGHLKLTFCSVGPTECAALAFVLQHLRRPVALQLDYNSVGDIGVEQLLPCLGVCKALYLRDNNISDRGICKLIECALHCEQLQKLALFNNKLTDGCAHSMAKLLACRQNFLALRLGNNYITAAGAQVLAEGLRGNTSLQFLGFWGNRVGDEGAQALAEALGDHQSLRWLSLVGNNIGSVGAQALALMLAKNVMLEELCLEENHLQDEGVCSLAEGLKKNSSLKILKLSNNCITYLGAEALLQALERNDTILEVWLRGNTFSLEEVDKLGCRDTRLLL

[4] = biological target: T2, Nucleotide-binding oligomerization domain-containing protein 2; assay: Agonist activity at human NOD2 expressed in HEK-Blue cells assessed as induction of NF-kB transcriptional activity at 2 uM after 18 hrs in presence of NOD2 antagonist GSK-669 by SEAP reporter gene assay; assay type: cell-based
[5] = biological target: T2, Nucleotide-binding oligomerization domain-containing protein 2; assay: Agonist activity at human NOD2 expressed in HEK-Blue cells assessed as induction of NF-kB transcriptional activity after 18 hrs by SEAP reporter gene assay; assay type: cell-based
[6] = biological target: T2, Nucleotide-binding oligomerization domain-containing protein 2; assay: Agonist activity at human NOD2 expressed in HEK-Blue cells assessed as induction of NF-kB transcriptional activity at 2 uM after 18 hrs by SEAP reporter gene assay relative to control; assay type: cell-based

| Structure (SMILES) | Activity [1] | viability at 18 h, 20 µM [2] [%] | Activity [3] | Activity [4] | Activity [5] | EC50 [5] [nM] | fold change (FC) [6] |
| --- | --- | --- | --- | --- | --- | --- | --- |
| CCOC(=O)c1cc(O)ccc1NC(=O)[C@@H](NC(=O)CNC(=O)/C=C/c1ccc(O)c(OC)c1)C(C)C | inactive | > 80 | Active | – | – | – | – |
| CCOC(=O)CC[C@@H](NC(=O)[C@H](Cc1ccccc1)NC(=O)CNC(=O)C1CC1c1ccc(F)c(F)c1)C(=O)OCC (stereo partly drawn) | inactive | > 80 | Active | inactive | Dose-dependent effect | 276 | 5.2 |
| CCOC(=O)CC[C@@H](NC(=O)[C@@H](NC(=O)CNC(=O)[C@@H]1C[C@H]1c1ccccc1)C(C)C)C(=O)OCC | inactive | > 80 | Active | inactive | – | – | 4.4 |
| CCOC(=O)CC[C@@H](NC(=O)[C@H](Cc1ccccc1)NC(=O)CNC(=O)[C@@H]1C[C@H]1c1ccccc1)C(=O)OCC | inactive | > 80 | Active | inactive | Dose-dependent effect | 472 | 5.3 |
| CCOC(=O)[C@@H]1CCCC[C@@H]1NC(=O)[C@@H](NC(=O)CNC(=O)/C=C/c1ccc(O)c(OC)c1)C(C)C | inactive | > 80 | Active | – | – | – | – |
| CCOC(=O)CC[C@@H](NC(=O)[C@H](Cc1ccccc1)NC(=O)CNC(=O)/C=C/c1ccc(O)c(OC)c1)C(=O)OCC | inactive | > 80 | Active | inactive | Dose-dependent effect | 121 | 5.7 |
| CCOC(=O)CC[C@@H](NC(=O)[C@@H](NC(=O)CNC(=O)/C=C/c1ccccc1)C(C)C)C(=O)OCC | inactive | > 80 | Active | inactive | Dose-dependent effect | 223 | 5.7 |
| CCOC(=O)CC[C@@H](NC(=O)[C@H](C)NC(=O)CNC(=O)/C=C/c1ccc(O)c(OC)c1)C(=O)OCC | inactive | > 80 | Active | inactive | – | 2790 | 4.5 |
| COC(=O)c1ccc(C(=O)OC)c(NC(=O)[C@@H](NC(=O)CNC(=O)/C=C/c2ccc(O)c(OC)c2)C(C)C)c1 | inactive | > 80 | Active | – | – | – | – |
| CCOC(=O)CC[C@@H](NC(=O)[C@@H](NC(=O)CNC(=O)/C=C/c1ccc(F)c(F)c1)C(C)C)C(=O)OCC | inactive | > 80 | Active | inactive | – | 172 | 5.6 |
| COC(=O)c1cc(NC(=O)[C@@H](NC(=O)CNC(=O)/C=C/c2ccc(O)c(OC)c2)C(C)C)cc(C(=O)OC)c1 | inactive | > 80 | Active | – | – | – | – |
| CCOC(=O)CC[C@@H](NC(=O)[C@@H](NC(=O)CNC(=O)c1cc2ccc(-c3ccccc3)cc2[nH]1)C(C)C)C(=O)OCC | inactive | > 80 | Active | inactive | – | – | 3.9 |
| CCOC(=O)[C@H]1CCCC[C@@H]1NC(=O)[C@@H](NC(=O)CNC(=O)/C=C/c1ccc(O)c(OC)c1)C(C)C | inactive | > 80 | Active | – | – | – | – |
| CCOC(=O)C1CCN(C(=O)[C@@H](NC(=O)CNC(=O)/C=C/c2ccc(O)c(OC)c2)C(C)C)CC1 | inactive | > 80 | Active | – | – | – | – |
